Assay results reported in patent publication US20260167656A1, “PHOSPHORAMIDATE COMPOUNDS AND USES THEREOF” (ALLORION THERAPEUTICS INC, priority 2022, published 2026).

Experiments:
[1] = tested on: non-small cell lung cancer cell line H460; test: In vitro human cancer cell line cytotoxicity (proliferation) assay in H460, CellTiter-Glo, 72 hours; format: cell-based; conditions: H460 cells, DMSO condition (no AKR1C3 inhibitor), read-out: CTG H460: Avg IC50 (nM) [Assay Condition: DMSO]
Procedure, shortened: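 IC50s in nM come from CellTiter-Glo viability read after 72 h of compound exposure. Compounds went in from 10 mM DMSO stocks onto H460 cells, which had been plated at 3×10^3 per well and grown 24 h beforehand at 37 °C, 5% CO2.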

[2] = tested on: non-small cell lung cancer cell line H460; test: H460 proliferation assay in the presence of 3 uM ASP9521 (AKR1C3 specific inhibitor); format: cell-based, human; conditions: H460 cells, CellTiter-Glo, 72 hours, in the presence of 3 uM ASP9521 added 4 hours prior to compounds; read-out: CTG H460: Avg IC50 (nM) [Assay Condition: ASP9521]
Procedure, shortened: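 AKR1C3 blocked with 3 uM ASP9521 given 4 h ahead of test compounds. H460 cells, plated 24 h earlier, were then treated for 72 h at 37 °C in 5% CO2. CellTiter-Glo luminescence gave viability.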

Row | SMILES | IC50 ([1]; Homo sapiens, NCI-H460, 72 h) [nM] | IC50 [2] [nM] | IC50 [1] [nM]
1 | Cn1cc(-c2ccc(Oc3cc4c(cc3[N+](=O)[O-])CCC4OP(=O)(N3CC3)N3CC3)cc2)ccc1=O (stereo not drawn) [Example 178] | ≥ 100 | 1630 | 
2 | Cn1cc(-c2ccc(Oc3cc4c(cc3[N+](=O)[O-])CCC4OP(=O)(N3CC3)N3CC3)cc2)ccc1=O (stereo not drawn) [Example 179] |  | 1100 | ≥ 100
3 | Cn1cc(-c2ccc(Oc3cc4c(cc3[N+](=O)[O-])CCC4OP(=O)(N3CC3)N3CC3)cc2)cn1 (stereo not drawn) [Example 180] | < 10 | 1950 | 
4 | Cn1cc(-c2ccc(Oc3cc4c(cc3[N+](=O)[O-])CCC4OP(=O)(N3CC3)N3CC3)cc2)cn1 (stereo not drawn) [Example 181] |  | 942 | < 10
5 | O=[N+]([O-])c1cc2c(cc1Oc1ccc(-c3ccc(Cl)cc3)cc1)C(OP(=O)(N1CC1)N1CC1)CC2 (stereo not drawn) [Example 182] |  | > 10000 | ≥ 100
6 | O=[N+]([O-])c1cc2c(cc1Oc1ccc(-c3ccc(Cl)cc3)cc1)C(OP(=O)(N1CC1)N1CC1)CC2 (stereo not drawn) [Example 183] |  | 1840 | 10 to 50
7 | COc1ccc(-c2ccc(Oc3cc4c(cc3[N+](=O)[O-])CCC4OP(=O)(N3CC3)N3CC3)cc2)cc1 (stereo not drawn) [Example 184] | 10 to 50 | 2640 | 
8 | O=[N+]([O-])c1cc2c(cc1Oc1ccc(-c3cccnc3)cc1)C(OP(=O)(N1CC1)N1CC1)CC2 (stereo not drawn) [Example 187] | 10 to 50 | > 10000 | 
9 | O=C(NC1CCC1)c1ccc(Oc2cc3c(cc2[N+](=O)[O-])CCC3OP(=O)(N2CC2)N2CC2)cc1 (stereo not drawn) [Example 190] | < 10 | 984 | 
10 | O=C(NC1CCC1)c1ccc(Oc2cc3c(cc2[N+](=O)[O-])CCC3OP(=O)(N2CC2)N2CC2)cc1 (stereo not drawn) [Example 191] |  | 661 | < 10
11 | O=[N+]([O-])c1cc2c(cc1Oc1ccc(-c3ccccc3)nc1)C(OP(=O)(N1CC1)N1CC1)CC2 (stereo not drawn) [Example 192] | < 10 | 1090 | 
12 | O=[N+]([O-])c1cc2c(cc1Oc1ccc(-c3ccccc3)nc1)C(OP(=O)(N1CC1)N1CC1)CC2 (stereo not drawn) [Example 193] |  | 880 | < 10
13 | Cn1cnc2ccc(Oc3cc4c(cc3[N+](=O)[O-])CCC4OP(=O)(N3CC3)N3CC3)cc2c1=O (stereo not drawn) [Example 194] | 10 to 50 | 1290 | 
14 | Cn1cnc2ccc(Oc3cc4c(cc3[N+](=O)[O-])CCC4OP(=O)(N3CC3)N3CC3)cc2c1=O (stereo not drawn) [Example 195] |  | 4980 | 10 to 50
15 | O=[N+]([O-])c1cc2c(cc1Oc1ccccc1-c1ccccc1)C(OP(=O)(N1CC1)N1CC1)CC2 (stereo not drawn) [Example 196] | ≥ 100 | 6370 | 
16 | O=[N+]([O-])c1cc2c(cc1Oc1ccccc1-c1ccccc1)C(OP(=O)(N1CC1)N1CC1)CC2 (stereo not drawn) [Example 197] |  | 1760 | ≥ 100
17 | O=[N+]([O-])c1cc2c(cc1Oc1ccc(-c3ccncc3)cc1)C(OP(=O)(N1CC1)N1CC1)CC2 (stereo not drawn) [Example 198] | < 10 | 2230 | 
18 | CN1Cc2ccc(Oc3cc4c(cc3[N+](=O)[O-])OCCC4OP(=O)(N3CC3)N3CC3)cc2C1=O (stereo not drawn) [Example 199, 6-((2-methyl-3-oxoisoindolin-5-yl)oxy)-7-nitrochroman-4-yl di(aziridin-1-yl)phosphinate] | < 10 | 416 | 
19 | CN1CCc2ccc(Oc3cc4c(cc3[N+](=O)[O-])OCCC4OP(=O)(N3CC3)N3CC3)cc2C1=O (stereo not drawn) [Example 200] | 10 to 50 | 434 | 
20 | CC(OP(=O)(N1CC1C)N1CC1C)c1ccc([N+](=O)[O-])c(Oc2cccc(C(=O)N(C)C)c2)c1 (stereo not drawn) [Example 205] | < 10 | 184 | 
21 | CC1CN1P(=O)(OCc1ccc([N+](=O)[O-])c(Oc2cccc(C(=O)N(C)C)c2)c1)N1CC1C (stereo not drawn) [Example 206, 3-(3-(dimethylcarbamoyl)phenoxy)-4-nitrobenzyl bis(2-methylaziridin-1-yl)phosphinate] | < 10 | 82.3 | 
22 | C[C@H]1CN1P(=O)(OCc1ccc([N+](=O)[O-])c(Oc2cccc(C(=O)N(C)C)c2)c1)N1C[C@@H]1C (stereo partly drawn) [Example 207] | < 10 | 217 | 
23 | C[C@@H]1CN1P(=O)(OCc1ccc([N+](=O)[O-])c(Oc2cccc(C(=O)N(C)C)c2)c1)N1C[C@H]1C (stereo partly drawn) [Example 208] | < 10 | 184 | 
24 | CC(OP(=O)(N1C[C@H]1C)N1C[C@H]1C)c1ccc([N+](=O)[O-])c(Oc2cccc(C(=O)N(C)C)c2)c1 (stereo partly drawn) [Example 210] | < 10 | 294 | 
